Data on one compound can be found in US20240132498A1, “CRYSTALLINE FORMS OF 5-(3,4-DIFLUOROBENZYL)-8-((1R,4R)-4-METHYLCYCLOHEXYL)-6,9-DIOXO-2,5,8-TRIAZASPIRO[3.5]NONANE-2-CARBALDEHYDE” (Cytokinetics, Incorporated, priority 2022, published 2024).

As a reminder, the clearance is the volume of plasma or blood freed of the substance per unit of time. By half-life is commonly meant the time in which the quantity being followed falls by half. A high value points to slow decline.

Series [1] addresses T1, CYP2C9 (Homo sapiens, UniProt P11712).
T1 construct: from tissue; host or cells: pooled human liver microsomes
Briefly: Time-dependent inhibition of CYP450 enzymes in human liver microsomes: CYP2C9. Type of series: in vitro ADME. Here is the method:
(§1) An assessment of the time-dependent Inhibitory Potential of the test compounds against Principal Human Cytochrome P450 Isozymes using Human Liver Microsomes was also carried out using standard methods (Grimm et al, Drug Metab. Dispos., Jul; 37(7):1355-70. doi: 10.1124/dmd.109.026716, 2009). Pooled human microsomes and selective CYP probe substrates were used for in vitro assessment of test compounds at 25 and 50 μM as time-dependent inhibitors of […] human hepatic cytochrome P450 isozymes (CYP1A2, 2B6, 2C9, 2C19, 2D6, and 3A4). LC-MS/MS was used to quantify metabolite formation. The inhibition of each P450 enzyme in human liver microsomes was measured as the percentage decrease in the activity of marker metabolite formation as measured by LC-MS/MS compared to non-inhibited controls (=100% activity) at time zero and after 30 minutes incubation. The occurrence of any time dependent inhibition was then expressed as the fold change in enzyme activity at time zero relative to the activity after 30 minutes incubation. The time dependent inhibition for the compound 5-(3,4-difluorobenzyl)-8-((1 r,4r)-4-methylcyclohexyl)-6,9-dioxo-2,5, 8-triazaspiro [3.5]nonane-2-carbaldehyde (Compound 1) against CYP1A2, […], CYP2C8, CYP2C9, CYP2C19, CYP2D6, CYP3A4-M and CYP3A4-T is shown in Table B-12.

Series [2] can be described thus: Dog cassette dosing IV pharmacokinetics. Particulars: plasma, male beagle dogs. It is filed as in vivo. Here is the method:
Non-naïve male beagle dogs (8 months to 3 years of age, body weight 8-14 kg) sourced from Jiangsu Johnsen Bioresource CO. and/or Beijing Rixinkeji CO., LTD and/or Beijing Marshall Biotechnology CO., LTD were used in this study. All animals for IV administration had free access to food and water. The IV dose solution was prepared in 10% DMA/50% PG/40% HP0CD solution (40% w/v aqueous HP0CD) at a concentration of 0.2 mg/mL. Concentrations of IV dose was measured at the end of the study. PK parameters were calculated using the nominal dose values if the measured values were within 20% of the nominal values. Blood samples were collected by venipuncture of peripheral veins except the dosing vein at pre-dose, 5 15, 30 min, 1, 2, 4, 6, 8 and 24 h post-dose. Blood samples were centrifuged and resultant plasma was frozen for bioanalysis. Plasma samples were stored at −80° C. before analysis. Plasma samples were analyzed for compound concentrations using the LC/MS/MS method. Briefly, a 50 p L aliquot of each plasma sample was mixed with 100 μL of acetonitrile that contained an internal standard. The mixture was vortexed and centrifuged. Ten (10) μL of the resulting solution was injected onto a reverse-phase C18 column and the resultant peaks detected on a LC/MS/MS equipped with a turbo ionspray ionization source. Sample concentrations below the limit of quantification (BLQ) were treated as zero for PK calculations. […] The elimination rate constant (k) was calculated as the absolute value of the slope of the linear regression of logarithm (log) of the concentration versus time for the last three data points of the concentration-time profiles. Apparent elimination half-life (t½) values were calculated as 1n(2)/k. […] AUC values were calculated from the dosing time to the last measurable concentration. AUC∞ values were calculated as the sum of the corresponding AUC and the ratio of the last detectable concentration divided by k. Plasma clearance (CL) was calculated from Dose/AUC.. […] Vss was calculated from MRT∞×CL. Maximum concentration (Cmax) and time to reach Cmax (tmax) were recorded as observed. […]

The target of series [3] is T2, CYP2D6 (Homo sapiens, UniProt P10635).
T2 construct: from tissue; host or cells: pooled human liver microsomes
T2 sequence (P10635 whole entry): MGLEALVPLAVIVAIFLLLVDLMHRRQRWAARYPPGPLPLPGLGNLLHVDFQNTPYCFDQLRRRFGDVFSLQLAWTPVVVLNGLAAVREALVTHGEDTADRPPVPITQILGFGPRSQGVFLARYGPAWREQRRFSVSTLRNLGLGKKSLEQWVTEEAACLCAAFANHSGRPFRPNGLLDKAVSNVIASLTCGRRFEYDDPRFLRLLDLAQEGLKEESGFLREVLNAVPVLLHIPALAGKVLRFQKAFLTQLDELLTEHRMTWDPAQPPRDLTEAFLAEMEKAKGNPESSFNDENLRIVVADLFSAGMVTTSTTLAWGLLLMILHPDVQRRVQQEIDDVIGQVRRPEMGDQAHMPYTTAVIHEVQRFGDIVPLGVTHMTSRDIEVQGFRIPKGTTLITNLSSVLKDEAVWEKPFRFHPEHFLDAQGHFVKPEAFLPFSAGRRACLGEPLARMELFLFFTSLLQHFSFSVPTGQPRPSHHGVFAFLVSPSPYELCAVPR
Put plainly: Time-dependent inhibition of CYP450 enzymes in human liver microsomes: CYP2D6. It is filed as in vitro ADME. Particulars: for fold change in activity (time dependent inhibition), 2D6: human liver microsomes. On the procedure:
as §1
(In general: Liver microsomes are a subcellular fraction often used to study metabolism.)

In series [4] the target is T3, CYP2C8 (Homo sapiens, UniProt P10632).
T3 construct: from tissue; host or cells: pooled human liver microsomes
T3 sequence (P10632 1-490): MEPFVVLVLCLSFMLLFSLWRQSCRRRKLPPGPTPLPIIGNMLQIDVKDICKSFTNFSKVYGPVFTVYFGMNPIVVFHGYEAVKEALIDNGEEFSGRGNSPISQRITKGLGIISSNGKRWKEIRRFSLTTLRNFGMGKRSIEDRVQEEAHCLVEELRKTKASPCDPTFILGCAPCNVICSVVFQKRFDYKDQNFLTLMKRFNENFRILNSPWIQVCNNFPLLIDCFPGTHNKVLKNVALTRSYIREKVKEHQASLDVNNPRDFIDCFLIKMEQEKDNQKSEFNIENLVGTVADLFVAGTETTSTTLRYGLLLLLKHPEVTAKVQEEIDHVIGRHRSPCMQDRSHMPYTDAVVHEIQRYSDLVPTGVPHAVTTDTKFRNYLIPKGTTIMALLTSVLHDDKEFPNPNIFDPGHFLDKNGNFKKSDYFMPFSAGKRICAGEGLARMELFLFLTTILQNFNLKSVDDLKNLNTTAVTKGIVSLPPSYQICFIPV
Put plainly: Time-dependent inhibition of CYP450 enzymes in human liver microsomes: CYP2C8. It is filed as in vitro ADME. Here is the method:
as §1

Molecules are shown by their SMILES.

T1 sequence (P11712 whole entry): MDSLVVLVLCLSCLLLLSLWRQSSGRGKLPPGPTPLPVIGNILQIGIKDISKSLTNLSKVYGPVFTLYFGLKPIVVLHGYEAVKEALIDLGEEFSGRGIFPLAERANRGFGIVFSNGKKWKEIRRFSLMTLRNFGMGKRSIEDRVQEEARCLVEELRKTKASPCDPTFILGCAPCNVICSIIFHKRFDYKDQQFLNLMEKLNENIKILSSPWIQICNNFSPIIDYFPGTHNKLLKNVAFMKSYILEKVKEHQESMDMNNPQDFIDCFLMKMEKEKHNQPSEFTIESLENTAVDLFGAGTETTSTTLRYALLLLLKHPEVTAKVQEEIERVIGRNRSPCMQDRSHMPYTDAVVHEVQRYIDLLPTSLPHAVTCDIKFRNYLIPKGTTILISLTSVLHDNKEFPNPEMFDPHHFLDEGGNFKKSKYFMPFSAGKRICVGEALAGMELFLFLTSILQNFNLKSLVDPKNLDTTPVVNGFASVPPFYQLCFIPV

As to `C[C@H]1CC[C@H](N2CC(=O)N(Cc3ccc(F)c(F)c3)C3(CN(C=O)C3)C2=O)CC1` [Compound 1, 5-(3,4-difluorobenzyl)-8-((1r,4r)-4-methylcyclohexyl)-6,9-dioxo-2,5,8-triazaspiro[3.5]nonane-2-carbaldehyde], the “(% Activity NADPH T0)/(% Activity NADPH T30)” value in series [1] (CYP2C9, 25 μM) is recorded as 1.0; in series [1] (CYP2C9, 50 μM) it was 0.9; in series [3] (CYP2D6, 25 μM), 1.3; in series [3] (CYP2D6, 50 μM) it was 1.1; in series [4] (CYP2C8, 25 μM) it was 1.0; in series [4] (CYP2C8, 50 μM), 1.2. The activity at 30 min, 25 µM was found to be 84% in series [1] (human, pooled human liver microsomes, CYP2C9, 25 μM, 30 minutes incubation, read-out: % Activity NADPH T30); 90% in series [3] (human, pooled human liver microsomes, CYP2D6, 25 μM, 30 minutes incubation, read-out: % Activity NADPH T30); 80% in series [4] (human, pooled human liver microsomes, CYP2C8, 25 μM, 30 minutes incubation, read-out: % Activity NADPH T30). The activity at 0 min, 25 µM stood at 83% in series [1] (human, pooled human liver microsomes, CYP2C9, 25 μM, time zero, read-out: % Activity NADPH T0); 118% in series [3] (human, pooled human liver microsomes, CYP2D6, 25 μM, time zero, read-out: % Activity NADPH T0); 79% in series [4] (human, pooled human liver microsomes, CYP2C8, 25 μM, time zero, read-out: % Activity NADPH T0). Moreover, the activity at 30 min, 50 µM stood at 71% in series [1] (human, pooled human liver microsomes, CYP2C9, 50 μM, 30 minutes incubation, read-out: % Activity NADPH T30); 88% in series [3] (human, pooled human liver microsomes, CYP2D6, 50 μM, 30 minutes incubation, read-out: % Activity NADPH T30); 79% in series [4] (human, pooled human liver microsomes, CYP2C8, 50 μM, 30 minutes incubation, read-out: % Activity NADPH T30). The activity at 0 min, 50 µM in series [1] (human, pooled human liver microsomes, CYP2C9, 50 μM, time zero, read-out: % Activity NADPH T0) is 63%; in series [3] (human, pooled human liver microsomes, CYP2D6, 50 μM, time zero, read-out: % Activity NADPH T0), 93%; in series [4] (human, pooled human liver microsomes, CYP2C8, 50 μM, time zero, read-out: % Activity NADPH T0) it was 97%. The same compound showed a clearance in series [2] of 5.12 mL/min/kg. Moreover, in series [2], the half-life is 11.8 h. The Vd in series [2] (read-out: Vss) is 4.48 L/kg. In addition, the “fold change in activity (time dependent inhibition), 2D6” value in series [3] (25 μM) is reported as 1.3 fold; in series [3] (50 μM) it was “no change in activity”.
